Several values for one entry are separate records, joined by “and”; a condition that tells them apart may be missing. Identical values can stand only once. Blank lines part the entries; values can stand above or below the compound they belong to.
System: 377384-186-R-J1-PDC complex spheroid viability
Experiment: Anticancer human tumor 377384-186-R-J1-PDC patient-derived pancreatic carcinoma cell line growth inhibition [RAS]
Conditions: for viability, T/C: stronger effect = lower value
Summary of the method: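 Tumour cells grown as complex spheroids with HUVEC endothelial cells and mesenchymal stem cells, treated with RAS pathway inhibitor combinations. Each agent spans half-log steps from near clinical Cmax, or 10 microM where Cmax is unknown.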

[1] = curve of first compound, second compound 0.000949 µM
[2] = curve of first compound, second compound 0.003 µM
[3] = curve of first compound, second compound 0.00949 µM
[4] = curve of first compound, second compound 0.03 µM
[5] = curve of first compound, second compound 0.0949 µM
[6] = curve of first compound, second compound 0.3 µM
[7] = second compound 0.000949 µM, first compound 0.0316 µM
[8] = second compound 0.000949 µM, first compound 0.1 µM
[9] = second compound 0.000949 µM, first compound 0.316 µM
[10] = second compound 0.000949 µM, first compound 1 µM
[11] = second compound 0.003 µM, first compound 0.0316 µM
[12] = second compound 0.003 µM, first compound 0.1 µM
[13] = second compound 0.003 µM, first compound 0.316 µM
[14] = second compound 0.003 µM, first compound 1 µM
[15] = second compound 0.00949 µM, first compound 0.0316 µM
[16] = second compound 0.00949 µM, first compound 0.1 µM
[17] = second compound 0.00949 µM, first compound 0.316 µM
[18] = second compound 0.00949 µM, first compound 1 µM
[19] = second compound 0.03 µM, first compound 0.0316 µM
[20] = second compound 0.03 µM, first compound 0.1 µM
[21] = second compound 0.03 µM, first compound 0.316 µM
[22] = second compound 0.03 µM, first compound 1 µM
[23] = second compound 0.0949 µM, first compound 0.0316 µM
[24] = second compound 0.0949 µM, first compound 0.1 µM
[25] = second compound 0.0949 µM, first compound 0.316 µM
[26] = second compound 0.0949 µM, first compound 1 µM
[27] = second compound 0.3 µM, first compound 0.0316 µM
[28] = second compound 0.3 µM, first compound 0.1 µM
[29] = second compound 0.3 µM, first compound 0.316 µM
[30] = second compound 0.3 µM, first compound 1 µM
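Further: spheroids exposed to compounds for seven days before readout.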

IC50 [1]: < 31.6 nM | IC50 [2]: < 31.6 nM | IC50 [3]: < 31.6 nM | IC50 [4]: < 31.6 nM | IC50 [5]: < 31.6 nM | IC50 [6]: < 31.6 nM
Structure (SMILES): CC1(O)CCCC1n1c(=O)c(C(F)F)cc2cnc(NC3CCN(S(C)(=O)=O)CC3)nc21 (stereo not given) + CCn1c(-c2cc(N3CCN(C)CC3)cnc2C(C)OC)c2c3cc(ccc31)-c1csc(n1)CC(NC(=O)C1CC1C)C(=O)N1CCCC(N1)C(=O)OCC(C)(C)C2
viability, T/C [7]: 46.6% | viability, T/C [8]: 24.9% | viability, T/C [9]: 16.1% | viability, T/C [10]: 14.2% | viability, T/C (second compound 0.000949 µM, first compound 3.16 µM): 18.5% | viability, T/C (second compound 0.000949 µM, first compound 10 µM): 4.43% | viability, T/C [11]: 20.3% | viability, T/C [12]: 10.9% | viability, T/C [13]: 9.42% | viability, T/C [14]: 11.9% | viability, T/C (second compound 0.003 µM, first compound 3.16 µM): 13.4% | viability, T/C (second compound 0.003 µM, first compound 10 µM): 2.79% | viability, T/C [15]: 4.59% | viability, T/C [16]: 4.26% | viability, T/C [17]: 4.8% | viability, T/C [18]: 4.95% | viability, T/C (second compound 0.00949 µM, first compound 3.16 µM): 6.03% | viability, T/C (second compound 0.00949 µM, first compound 10 µM): 2.54% | viability, T/C [19]: 2.77% | viability, T/C [20]: 2.5% | viability, T/C [21]: 3.09% | viability, T/C [22]: 3.54% | viability, T/C (second compound 0.03 µM, first compound 3.16 µM): 3.12% | viability, T/C (second compound 0.03 µM, first compound 10 µM): 2% | viability, T/C [23]: 1.91% | viability, T/C [24]: 2.25% | viability, T/C [25]: 2.46% | viability, T/C [26]: 2.54% | viability, T/C (second compound 0.0949 µM, first compound 3.16 µM): 1.98% | viability, T/C (second compound 0.0949 µM, first compound 10 µM): 2.3% | viability, T/C [27]: 2% | viability, T/C [28]: 2.25% | viability, T/C [29]: 2.49% | viability, T/C [30]: 2.5% | viability, T/C (second compound 0.3 µM, first compound 3.16 µM): 1.75% | viability, T/C (second compound 0.3 µM, first compound 10 µM): 1.85%

IC50 [1]: 33.2 nM | IC50 [2]: 44.8 nM | IC50 [3]: 28.6 nM | IC50 [4]: 36 nM | IC50 [5]: 29.9 nM | IC50 [6]: 16.8 nM
Structure (SMILES): O=C(c1ccc(F)c(F)c1Nc1ccc(I)cc1F)N1CC(O)([C@@H]2CCCCN2)C1 + CCn1c(-c2cccnc2C(C)OC)c2c3cc(ccc31)N1CCOC(CC(NC(=O)C(C(C)C)N(C)C(=O)C3(F)CCN(C(=O)C#CC(C)(C)N(C)C)CC3)C(=O)N3CCCC(N3)C(=O)OCC(C)(C)C2)C1
viability, T/C (second compound 0.000949 µM, first compound 0.00316 µM): 87.5% | viability, T/C (second compound 0.000949 µM, first compound 0.01 µM): 85.8% | viability, T/C [7]: 49.2% | viability, T/C [8]: 17.4% | viability, T/C [9]: 1.96% | viability, T/C [10]: 1.6% | viability, T/C (second compound 0.003 µM, first compound 0.00316 µM): 103% | viability, T/C (second compound 0.003 µM, first compound 0.01 µM): 89.2% | viability, T/C [11]: 63.1% | viability, T/C [12]: 22.7% | viability, T/C [13]: 2.13% | viability, T/C [14]: 0.43% | viability, T/C (second compound 0.00949 µM, first compound 0.00316 µM): 98.8% | viability, T/C (second compound 0.00949 µM, first compound 0.01 µM): 75% | viability, T/C [15]: 50.3% | viability, T/C [16]: 19.1% | viability, T/C [17]: 1.75% | viability, T/C [18]: 0.87% | viability, T/C (second compound 0.03 µM, first compound 0.00316 µM): 96.2% | viability, T/C (second compound 0.03 µM, first compound 0.01 µM): 77.8% | viability, T/C [19]: 57.3% | viability, T/C [20]: 18.9% | viability, T/C [21]: 4.23% | viability, T/C [22]: 0.57% | viability, T/C (second compound 0.0949 µM, first compound 0.00316 µM): 85.5% | viability, T/C (second compound 0.0949 µM, first compound 0.01 µM): 77.8% | viability, T/C [23]: 47.5% | viability, T/C [24]: 17.7% | viability, T/C [25]: 1.32% | viability, T/C [26]: 0.36% | viability, T/C (second compound 0.3 µM, first compound 0.00316 µM): 77.1% | viability, T/C (second compound 0.3 µM, first compound 0.01 µM): 60.6% | viability, T/C [27]: 36.9% | viability, T/C [28]: 10.7% | viability, T/C [29]: 0.96% | viability, T/C [30]: 0.43%

IC50 (curve of compound): 476 nM [middle of 4 runs]
Structure (SMILES): CC(Nc1ccc2c(c1)OCCn1cc(N3C(=O)OCC3C(F)F)nc1-2)C(N)=O (stereo not given)
viability, T/C (compound 0.0316 µM): 76% [middle of 4 runs] | viability, T/C (compound 0.1 µM): 63.8% [middle of 4 runs] | viability, T/C (compound 0.316 µM): 55.8% [middle of 4 runs] | viability, T/C (compound 1 µM): 47.9% and 40.3% (2×) and 48.2% | viability, T/C (compound 3.16 µM): 33.7% [middle of 4 runs] | viability, T/C (compound 10 µM): 30.7% [middle of 4 runs]

IC50 (curve of compound): 194 nM [middle of 4 runs]
Structure (SMILES): CCN1CCN(Cc2ccc(Nc3ncc(F)c(-c4cc(F)c5nc(C)n(C(C)C)c5c4)n3)nc2)CC1
viability, T/C (compound 0.00316 µM): 98.7% [middle of 4 runs] | viability, T/C (compound 0.01 µM): 79.1% [middle of 4 runs] | viability, T/C (compound 0.0316 µM): 70.3% [middle of 4 runs] | viability, T/C (compound 0.1 µM): 60% [middle of 4 runs] | viability, T/C (compound 0.316 µM): 44.2% [middle of 4 runs] | viability, T/C (compound 1 µM): 38% [middle of 4 runs]

IC50 (curve of first compound, second compound 0.00316 µM): 98.8 nM | IC50 (curve of first compound, second compound 0.01 µM): 86.6 nM | IC50 (curve of first compound, second compound 0.0316 µM): 95.4 nM | IC50 (curve of first compound, second compound 0.1 µM): 77.1 nM | IC50 (curve of first compound, second compound 0.316 µM): 76.9 nM | IC50 (curve of first compound, second compound 1 µM): 67.5 nM
Structure (SMILES): CC1(O)CCCC1n1c(=O)c(C(F)F)cc2cnc(NC3CCN(S(C)(=O)=O)CC3)nc21 (stereo not given) + C=CC(=O)N1CCN(c2nc(OCC3CCCN3C)nc3c(F)c(-c4nc(N)cc(C)c4C(F)(F)F)c(Cl)cc23)C(C)C1
viability, T/C (second compound 0.00316 µM, first compound 0.0316 µM): 81.1% | viability, T/C (second compound 0.00316 µM, first compound 0.1 µM): 49.7% | viability, T/C (second compound 0.00316 µM, first compound 0.316 µM): 17% | viability, T/C (second compound 0.00316 µM, first compound 1 µM): 24.2% | viability, T/C (second compound 0.00316 µM, first compound 3.16 µM): 33.9% | viability, T/C (second compound 0.00316 µM, first compound 10 µM): 4.64% | viability, T/C (second compound 0.01 µM, first compound 0.0316 µM): 89.5% | viability, T/C (second compound 0.01 µM, first compound 0.1 µM): 45.1% | viability, T/C (second compound 0.01 µM, first compound 0.316 µM): 21.4% | viability, T/C (second compound 0.01 µM, first compound 1 µM): 20.8% | viability, T/C (second compound 0.01 µM, first compound 3.16 µM): 28.8% | viability, T/C (second compound 0.01 µM, first compound 10 µM): 4.18% | viability, T/C (second compound 0.0316 µM, first compound 0.0316 µM): 73.4% | viability, T/C (second compound 0.0316 µM, first compound 0.1 µM): 49% | viability, T/C (second compound 0.0316 µM, first compound 0.316 µM): 20.9% | viability, T/C (second compound 0.0316 µM, first compound 1 µM): 20.7% | viability, T/C (second compound 0.0316 µM, first compound 3.16 µM): 29.1% | viability, T/C (second compound 0.0316 µM, first compound 10 µM): 5.27% | viability, T/C (second compound 0.1 µM, first compound 0.0316 µM): 79.3% | viability, T/C (second compound 0.1 µM, first compound 0.1 µM): 42.1% | viability, T/C (second compound 0.1 µM, first compound 0.316 µM): 20.4% | viability, T/C (second compound 0.1 µM, first compound 1 µM): 24.4% | viability, T/C (second compound 0.1 µM, first compound 3.16 µM): 29.3% | viability, T/C (second compound 0.1 µM, first compound 10 µM): 4.69% | viability, T/C (second compound 0.316 µM, first compound 0.0316 µM): 74.3% | viability, T/C (second compound 0.316 µM, first compound 0.1 µM): 42.8% | viability, T/C (second compound 0.316 µM, first compound 0.316 µM): 17.7% | viability, T/C (second compound 0.316 µM, first compound 1 µM): 21.5% | viability, T/C (second compound 0.316 µM, first compound 3.16 µM): 33% | viability, T/C (second compound 0.316 µM, first compound 10 µM): 5.33% | viability, T/C (second compound 1 µM, first compound 0.0316 µM): 69.4% | viability, T/C (second compound 1 µM, first compound 0.1 µM): 39.9% | viability, T/C (second compound 1 µM, first compound 0.316 µM): 19.7% | viability, T/C (second compound 1 µM, first compound 1 µM): 22.5% | viability, T/C (second compound 1 µM, first compound 3.16 µM): 32.5% | viability, T/C (second compound 1 µM, first compound 10 µM): 6.56%

Source: PubChem BioAssay AID2060903 (Molecular Pharmacology Branch, DTP, NCI, 2025)
